≈ marks a conversion by molar mass, not a printed value.
Experiments:
Assay type in all cases: functional
[1] = tested on: Klebsiella pneumoniae; assay: Antibacterial activity against Klebsiella pneumonia assessed growth inhibition by micro broth dilution method
[2] = tested on: Staphylococcus aureus; assay: Antibacterial activity against methicillin-resistant Staphylococcus aureus assessed growth inhibition by micro broth dilution method
[3] = tested on: Staphylococcus aureus; assay: Antibacterial activity against Staphylococcus aureus ATCC 29213 assessed growth inhibition by micro broth dilution method
[4] = tested on: Pseudomonas aeruginosa; assay: Antibacterial activity against Pseudomonas aeruginosa assessed growth inhibition by micro broth dilution method
[5] = tested on: Pseudomonas aeruginosa; assay: Antibacterial activity against Pseudomonas aeruginosa ATCC 27853 assessed growth inhibition by micro broth dilution method
[6] = tested on: Enterococcus faecalis; assay: Antibacterial activity against Enterococcus faecalis assessed growth inhibition by micro broth dilution method
[7] = tested on: Escherichia coli; assay: Antibacterial activity against Escherichia coli ATCC 25922 assessed growth inhibition by micro broth dilution method
[8] = tested on: Acinetobacter baumannii; assay: Antibacterial activity against Acinetobacter baumannii assessed growth inhibition by micro broth dilution method
[9] = tested on: Staphylococcus aureus; assay: Antibacterial activity against Staphylococcus aureus ATCC 25923 assessed growth inhibition by micro broth dilution method
[10] = tested on: Escherichia coli; assay: Antibacterial activity against Escherichia coli assessed growth inhibition by micro broth dilution method
[11] = tested on: Staphylococcus aureus; assay: Antibacterial activity against Staphylococcus aureus assessed growth inhibition by micro broth dilution method

SMILES	MIC [1] [µg/mL]	MIC [2] [µg/mL]	MIC [3] [µg/mL]	MIC [4] [µg/mL]	MIC [5] [µg/mL]	MIC [6] [µg/mL]	MIC [7] [µg/mL]	MIC [8] [µg/mL]	MIC [9] [µg/mL]	MIC [10] [µg/mL]	MIC [11] [µg/mL]
CCCCCCCCCCCCn1cc(C(=O)OCC)c(=O)c2cc(F)c(F)cc21	16 (≈ 38 µM)	256 (≈ 607 µM)	32 (≈ 75.9 µM)	64 (≈ 152 µM)	256 (≈ 607 µM)	64 (≈ 152 µM)	64 (≈ 152 µM)	64 (≈ 152 µM)	128 (≈ 304 µM)	16 (≈ 38 µM)	32 (≈ 75.9 µM)
CCOC(=O)c1cn(Cc2ccc(Cl)c(Cl)c2)c2cc(C(C#N)C(=O)OCC)c(F)cc2c1=O (centres undefined)	1 (≈ 1.98 µM)	8 (≈ 15.8 µM)	0.25 (≈ 0.495 µM)	0.5 (≈ 0.989 µM)	2 (≈ 3.96 µM)	16 (≈ 31.7 µM)	4 (≈ 7.92 µM)	2 (≈ 3.96 µM)	1 (≈ 1.98 µM)	8 (≈ 15.8 µM)	4 (≈ 7.92 µM)
C#CCn1cc(C(=O)OCC)c(=O)c2cc(F)c(F)cc21	128 (≈ 439 µM)	128 (≈ 439 µM)	128 (≈ 439 µM)	16 (≈ 54.9 µM)	256 (≈ 879 µM)	128 (≈ 439 µM)	64 (≈ 220 µM)	256 (≈ 879 µM)	256 (≈ 879 µM)	4 (≈ 13.7 µM)	128 (≈ 439 µM)
CCOC(=O)c1cn(CC2CCCCC2)c2cc(F)c(F)cc2c1=O	8 (≈ 22.9 µM)	128 (≈ 366 µM)	64 (≈ 183 µM)	64 (≈ 183 µM)	256 (≈ 733 µM)	128 (≈ 366 µM)	128 (≈ 366 µM)	256 (≈ 733 µM)	2 (≈ 5.72 µM)	4 (≈ 11.4 µM)	16 (≈ 45.8 µM)
CCOC(=O)c1cn(Cc2ccc(F)cc2F)c2cc([C-](C#N)C(=O)OCC)c(F)cc2c1=O.[Na+] (centres undefined)	4	64	4	64	2	8	2	32	0.5	1	128
CCOC(=O)c1cn(C2CC2)c2cc(C(C#N)C(=O)OCC)c(F)cc2c1=O (centres undefined)	8 (≈ 20.7 µM)	128 (≈ 331 µM)	32 (≈ 82.8 µM)	8 (≈ 20.7 µM)	64 (≈ 166 µM)	32 (≈ 82.8 µM)	32 (≈ 82.8 µM)	32 (≈ 82.8 µM)	8 (≈ 20.7 µM)	32 (≈ 82.8 µM)	16 (≈ 41.4 µM)
CCOC(=O)c1cn(Cc2ccccc2)c2cc(F)c(F)cc2c1=O	256 (≈ 746 µM)	256 (≈ 746 µM)	256 (≈ 746 µM)	256 (≈ 746 µM)	256 (≈ 746 µM)	128 (≈ 373 µM)	128 (≈ 373 µM)	2 (≈ 5.83 µM)	256 (≈ 746 µM)	2 (≈ 5.83 µM)	128 (≈ 373 µM)
C=CCn1cc(C(=O)OCC)c(=O)c2cc(F)c(F)cc21	32 (≈ 109 µM)	256 (≈ 873 µM)	128 (≈ 436 µM)	64 (≈ 218 µM)	256 (≈ 873 µM)	128 (≈ 436 µM)	64 (≈ 218 µM)	256 (≈ 873 µM)	64 (≈ 218 µM)	8 (≈ 27.3 µM)	128 (≈ 436 µM)
CCOC(=O)c1cn(CC(=O)N2CCCCC2)c2cc([C-](C#N)C(=O)OCC)c(F)cc2c1=O.[Na+] (centres undefined)	256	32	8	128	16	64	64	16	64	32	256
CCOC(=O)c1cn(CC=C(C)C)c2cc(F)c(F)cc2c1=O	32 (≈ 99.6 µM)	256 (≈ 797 µM)	128 (≈ 398 µM)	64 (≈ 199 µM)	256 (≈ 797 µM)	128 (≈ 398 µM)	64 (≈ 199 µM)	256 (≈ 797 µM)	64 (≈ 199 µM)	8 (≈ 24.9 µM)	128 (≈ 398 µM)
CCOC(=O)C(C#N)c1cc2c(cc1F)c(=O)c(C(=O)O)cn2Cc1ccc(Cl)c(Cl)c1 (centres undefined)	4 (≈ 8.38 µM)	32 (≈ 67 µM)	64 (≈ 134 µM)	16 (≈ 33.5 µM)	4 (≈ 8.38 µM)	128 (≈ 268 µM)	0.5 (≈ 1.05 µM)	16 (≈ 33.5 µM)	32 (≈ 67 µM)	128 (≈ 268 µM)	64 (≈ 134 µM)
CCOC(=O)c1cn(C2CC2)c2cc(F)c(F)cc2c1=O	64 (≈ 218 µM)	256 (≈ 873 µM)	128 (≈ 436 µM)	32 (≈ 109 µM)	256 (≈ 873 µM)	128 (≈ 436 µM)	64 (≈ 218 µM)	256 (≈ 873 µM)	16 (≈ 54.6 µM)	16 (≈ 54.6 µM)	64 (≈ 218 µM)
CCCCCn1cc(C(=O)OCC)c(=O)c2cc(F)c(F)cc21	64 (≈ 198 µM)	256 (≈ 792 µM)	64 (≈ 198 µM)	64 (≈ 198 µM)	256 (≈ 792 µM)	64 (≈ 198 µM)	64 (≈ 198 µM)	64 (≈ 198 µM)	256 (≈ 792 µM)	16 (≈ 49.5 µM)	32 (≈ 99 µM)
CCCn1cc(C(=O)OCC)c(=O)c2cc(F)c([C-](C#N)C(=O)OCC)cc21.[Na+] (centres undefined)	16	64	16	8	8	16	4	16	2	16	128
CCOC(=O)c1cn(CC2CCC2)c2cc([C-](C#N)C(=O)OCC)c(F)cc2c1=O.[Na+] (centres undefined)	8	16	8	16	8	2	2	4	4	64	8
CCOC(=O)C(C#N)c1c(F)cc2c(=O)c(C(=O)O)cn(CC)c2c1F (centres undefined)	4 (≈ 11 µM)	16 (≈ 43.9 µM)	32 (≈ 87.8 µM)	64 (≈ 176 µM)	4 (≈ 11 µM)	128 (≈ 351 µM)	2 (≈ 5.49 µM)	0.5 (≈ 1.37 µM)	32 (≈ 87.8 µM)	64 (≈ 176 µM)	16 (≈ 43.9 µM)
CCOC(=O)c1cn(CC2CCCC2)c2cc(F)c(F)cc2c1=O	32 (≈ 95.4 µM)	256 (≈ 763 µM)	128 (≈ 382 µM)	128 (≈ 382 µM)	256 (≈ 763 µM)	256 (≈ 763 µM)	128 (≈ 382 µM)	256 (≈ 763 µM)	16 (≈ 47.7 µM)	8 (≈ 23.9 µM)	64 (≈ 191 µM)
CCOC(=O)c1cn(CC(=O)N2CCN(C(=O)OC(C)(C)C)CC2)c2cc(F)c(F)cc2c1=O	256 (≈ 534 µM)	64 (≈ 133 µM)	64 (≈ 133 µM)	64 (≈ 133 µM)	32 (≈ 66.7 µM)	64 (≈ 133 µM)	64 (≈ 133 µM)	64 (≈ 133 µM)	128 (≈ 267 µM)	4 (≈ 8.34 µM)	256 (≈ 534 µM)
CCOC(=O)c1cn(Cc2ccccc2)c2cc([C-](C#N)C(=O)OCC)c(F)cc2c1=O.[Na+] (centres undefined)	4	256	4	32	4	64	2	8	0.5	4	64
